Reference: article PMC10610214 (Pharmaceuticals, 2023)
“And” between values parts separate entries of the source, which are not always exact repeats. Equal entries are not always repeated. “Also recorded” adds a separate entry of the source. Where two headings read alike, the source gives them in different places.

Assays:
AChE = molecular target: T1, AChE (Electrophorus electricus, UniProt O42275); format: biochemical; settings: for AChE activity after dilution (reversibility): control 100
T1 construct: AChE (from electric eel); purchased Sigma Chemical Company (St. Louis, MO, USA)
Procedure: The activities of the diluted residual enzymes were measured by Ellman’s modified method.
Reversibility studies were performed using a modified Ellman’s dilution method to measure the activity of the diluted residual enzyme. The AChE/BuChE (0.5 U/mL), ATCI/BTCI (0.01 M) and DTNB (0.01 M) were diluted with phosphate buffer pH = 7.4. […] At the end of incubation, 20 μL of DTNB solution was added to them. […] All the measured results are expressed as the mean ± SEM of the three independent experiments.

in vitro = in vitro ADME, SD rats; settings: pH 7.4
Procedure: The incubation was terminated at different time points by adding 0.5 mL of ice-cold CH3CN. A parallel incubation was performed in the absence of a NADPH-regenerating system with microsomes as the negative control, and the reactions were terminated after the corresponding time incubation. After centrifugation with 12,500 rpm at 4 °C for 10 min, the supernatant was directly analyzed by the HPLC UV systems (Agilent HPLC 1200 instrument). Three independent experiments were performed in triplicate.

COX-2 = COX-2 expression in LPS-stimulated BV2 cells (Western blot); format: cell-based; settings: 1, 2, 4 μM
Procedure: BV2 cells were seeded into a 6-well plate at a density of 3.0 × 10^5 cells per well. After incubation overnight, the old medium was discarded. Then, the cells were pretreated with various concentrations (1, 2, and 4 μM) of 4h for 1 h and then co-incubated with LPS (1 μg/mL) for 24 h. After incubation was completed, the cells were washed twice with PBS, and 300 μL of cell lysis buffer (RIRA lysis buffer, phosphatase inhibitor, protease inhibitor, and PMSF) was added to each well. The cells were then incubated on ice for 30 min and centrifuged at 12,000 rpm at 4 °C for 30 min to collect the supernatant. The protein content in the supernatant was detected using the BCA protein detection kit (Beyotime, Shanghai, China). Total proteins were separated by 10% SDS-PAGE and then transferred from the gel to a PVDF membrane (Sigma-Aldrich, Shanghai, China). The membranes were blocked in TBST solution containing 5% skimmed milk for 2 h. Next, the membranes were washed three times (TBST) and incubated with primary antibody dilution (Cell Signaling Technologies, Boston, MA, USA) overnight at 4 °C. Then, they were washed another three times (TBST), incubated with the secondary antibody at room temperature for 90 min, and then washed three times with TBST. The blots were visualized by a chemiluminescence imager (Tanon 5200, Shanghai, China).

AML-12 cells = test: Hepatotoxicity in AML-12 cells (MTT); format: cell-based; settings: 10, 30 and 50 μM
Procedure: (§1) The hepatotoxicity of compound 4h in normal AML-12 hepatocytes and HepG2 liver cancer cells was examined by MTT method. AML-12 cells and HepG2 cells were seeded into 96-well plates at a density of 5.0 × 10^3 cells per well, respectively. After the cells were incubated overnight, the old medium was discarded. The cells were incubated for 48 h with fresh medium containing various concentrations of the test compound. After 48 h of incubation, 20 μL of MTT (5 mg/mL) was added to each well and incubate for an additional 4 h. Formazan was dissolved with DMSO (150 μL). […]

HepG2 cells = test: Hepatotoxicity in HepG2 cells (MTT); format: cell-based; settings: 10, 30 and 50 μM
Procedure: as §1

[1] = Metal chelation by UV–Vis spectroscopy; format: physicochemical; settings: 20 μM 4h, 1 equivalent CuCl2, methanol/water 1/1
Procedure: In the wavelength range of 200–600 nm, the metal chelating ability of compound 4h was analyzed by UV–Vis spectroscopy. Specifically, compound 4h (dissolved in DMSO) solutions were prepared with a mixture of methanol and deionized water (1/1). Stock solutions of cation salts (10 mM) were prepared with deionized water and then in the presence or absence of ZnCl2, CuCl2, AlCl3, FeSO4, MgCl2, and CaCl2 (20 μM, final concentration), respectively, and incubated with 4h (20 μM, final concentration) for 1 h at room temperature. The final volume of the reaction mixture was 2 mL. The UV absorption of the test substance was recorded in a 1 cm quartz cell.

PC12 cells = test: Cytotoxicity in PC12 cells (MTT); format: cell-based
[2] = tested on: scopolamine-induced AD mice; test: Morris water maze, scopolamine-induced AD mouse model; format: in vivo
Procedure: Mice were reared in a temperature and humidity controlled environment with free access to food and water, with self-adaptive rearing for 4 days.
According to behavioral experiments, 30 mice were randomly divided into 5 groups. […] On day 7, scopolamine hydrobromide was injected intraperitoneally into the of the mouse to establish an AD model. The control group were only injected normal saline. After 30 min, the bodyweight changes in mice during the administration period were recorded.
The MWM is a white circular pool (150 cm in diameter, 60 cm in height; no features on the inner surface) with a water height of 46 cm and a white platform (10 cm in diameter) submerged 1 cm below the water surface. White titanium dioxide (0.25 g/L) was added to make the water turbid to make the platform invisible, and the platform was fixed in the third quadrant of the circular pool (four quadrants in total). Training was performed by allowing mice to stay for 15 s after reaching the platform. If the mice successfully found the platform within 60 s, they were allowed to stay on the platform for 15 s; otherwise, they were brought to the platform and stayed for 15 s. The training was performed four times a day for a total of 4 days of training. Except for the control group, animals were intraperitoneally injected with scopolamine 90 min before the test to induce cognitive deficits mimicking. On day 5, a probe trial was conducted with the platform removed. Mice were placed in the quadrant opposite the target for 60 s, and their swim path was recorded to evaluate memory retention. Performance measures included latency to reach the platform location and time spent in each quadrant.

[3] = Morris water maze probe trial, day 5

T1 sequence (O42275 24-633): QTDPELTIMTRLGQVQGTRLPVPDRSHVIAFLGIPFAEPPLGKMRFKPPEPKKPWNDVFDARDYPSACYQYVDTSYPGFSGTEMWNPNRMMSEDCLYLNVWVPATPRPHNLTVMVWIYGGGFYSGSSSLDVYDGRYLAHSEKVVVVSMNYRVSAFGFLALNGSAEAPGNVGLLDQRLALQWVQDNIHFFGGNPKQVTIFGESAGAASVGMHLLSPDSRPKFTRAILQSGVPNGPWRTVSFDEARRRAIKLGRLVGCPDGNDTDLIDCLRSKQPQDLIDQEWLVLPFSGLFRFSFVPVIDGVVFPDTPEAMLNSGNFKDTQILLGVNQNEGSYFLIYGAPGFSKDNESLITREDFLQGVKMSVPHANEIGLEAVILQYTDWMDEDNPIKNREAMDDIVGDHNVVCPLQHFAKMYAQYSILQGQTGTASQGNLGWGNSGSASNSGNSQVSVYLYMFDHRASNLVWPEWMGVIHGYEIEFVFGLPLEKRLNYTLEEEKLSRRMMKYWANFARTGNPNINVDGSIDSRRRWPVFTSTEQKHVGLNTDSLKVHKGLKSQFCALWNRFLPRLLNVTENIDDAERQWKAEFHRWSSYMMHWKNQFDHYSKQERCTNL

O=C1c2cc(NS(=O)(=O)c3ccccc3F)ccc2-n2c1nc1ccccc1c2=O [4h]
Reversibility of AChE inhibition (AChE; dilution method): reversible inhibitor | AChE activity after dilution (reversibility) (AChE; final inhibitor 0.1 × IC50 after 100-fold dilution): 87.2 ± 0.92 | AChE activity after dilution (reversibility) (AChE; final inhibitor 1 × IC50 after 100-fold dilution): 72.3 ± 1.03 | K (in vitro; SD, rat, 100 μM): 0.00574 ± 0.00037 min⁻¹ | half-life at 100 μM (in vitro; SD rat liver microsomes): 1.8 ± 0.0817 h | COX-2 expression (COX-2): significantly decreased the expression of COX-2 and iNOS | Hepatotoxicity in AML-12 cells (AML-12 cells): had no toxicity | Hepatotoxicity in HepG2 cells (HepG2 cells): had no toxicity | Metal chelating ability (UV–Vis) [1]: maximum absorption intensity at 261 nm was markedly reduced; also recorded: can chelate Cu^2+ | Cell Viability (% of Control) (PC12 cells; compound 30 μM, 30 µM): 99.62 ± 0.94 % of Control and 99.6 ± 0.9 % of Control | Cell Viability (% of Control) (PC12 cells; compound 50 μM, 50 µM): 99.21 ± 1.57 % of Control and 99.2 ± 1.5 % of Control | Bodyweight of mice ([2]; 10 and 30 mg/kg, gavage, 7 days): did not cause any abnormal fluctuations in the bodyweight of mice | Dwell time in the target quadrant [2, 3]: markedly higher in the 30 mg/kg dose group than those in the model and 10 mg/kg dose groups | Number of virtual platform crossings [2, 3]: markedly higher in the 30 mg/kg dose group than those in the model and 10 mg/kg dose groups | Escape latency ([2]; Morris water maze, 10 and 30 mg/kg gavage, training days): decreased in a dose-dependent manner
